Assay results reported in ChEMBL document CHEMBL1201862, “PubChem BioAssay data set” (2004).
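A five-concentration, 48-hour dose response in 96-well plates underlies each endpoint, interpolated linearly between surrounding concentrations. GI50 is the concentration that inhibits growth by half.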 Calls of active or inactive are those of the source. No stated cut-off is given here; in the data, active = GI50 up to about 1.1 µM and inactive = higher.

Key:
Test in all cases: inhibition of tumour cell growth, NCI panel, 48 h
LXFL 529 = system: LXFL 529
KM-20L2 = system: KM-20L2
DMS-273 = system: DMS-273
XF498 = system: XF498
M19-MEL = system: M19-MEL
HOP-18 = system: HOP-18
BT-549 = system: BT-549
DLD-1 = system: DLD-1
RXF 631 = system: RXF 631

Compound | GI50 (LXFL 529) | GI50 (KM-20L2) | GI50 (DMS-273) | GI50 (XF498) | GI50 (M19-MEL) | GI50 (HOP-18) | GI50 (BT-549) | GI50 (DLD-1) | GI50 (RXF 631)
CCN(CCO)CCNc1ccc(C)c2sc3ccccc3c(=O)c12 | 2.77 µM (inactive) | 2.59 µM (inactive) | 2.36 µM (inactive) | 3.31 µM (inactive) | 2 µM (inactive) | 11.9 µM (inactive) | 13.4 µM (inactive) | 3.83 µM (inactive) | –
CCN(CC)C1CC(O[C@H]2C[C@](O)(C(=O)CO)Cc3c(O)c4c(c(O)c32)C(=O)c2c(OC)cccc2C4=O)OC(C)C1O (stereo partly specified) | 0.0458 µM (active) | 0.0733 µM (active) | < 0.0215 µM (active) | 0.0752 µM (active) | 0.0484 µM (active) | – | – | 0.0395 µM (active) | 0.0655 µM (active)
CCOC(OCC)(OCC)C(Br)CC (stereo unspecified) | 51.9 µM (inactive) | 11.8 µM (inactive) | 19.1 µM (inactive) | > 100 µM (inactive) | > 100 µM (inactive) | > 100 µM (inactive) | – | 22 µM (inactive) | > 100 µM (inactive)
CCCNC(=O)c1cc2ccccc2cc1C(=O)OC | > 100 µM (inactive) | > 100 µM (inactive) | > 100 µM (inactive) | > 100 µM (inactive) | > 100 µM (inactive) | > 100 µM (inactive) | – | > 100 µM (inactive) | > 100 µM (inactive)
COc1cc(O)c(C(=O)C2Cc3ccccc32)c(OC)c1 (stereo unspecified) | 34 µM (inactive) | 65.3 µM (inactive) | 43.4 µM (inactive) | – | – | 34.4 µM (inactive) | – | 46.2 µM (inactive) | 86.9 µM (inactive)
O=c1[nH]c(=O)n(C2OC(CO)C(O)C2O)cc1/N=N/NCc1ccccc1 (stereo unspecified) | 98.2 µM (inactive) | > 100 µM (inactive) | > 71.6 µM (inactive) | > 100 µM (inactive) | > 100 µM (inactive) | > 100 µM (inactive) | – | > 60.1 µM (inactive) | > 100 µM (inactive)
Cc1nc(-c2ccccc2)cc2c1c(=O)oc1ccccc12 | > 100 µM (inactive) | > 100 µM (inactive) | > 100 µM (inactive) | – | – | > 100 µM (inactive) | – | > 100 µM (inactive) | > 100 µM (inactive)
Cc1cc(NS(=O)(=O)c2ccc(NC(=O)c3cccn4c(=O)c5ccccc5nc34)cc2)no1 | > 100 µM (inactive) | > 100 µM (inactive) | > 100 µM (inactive) | > 100 µM (inactive) | > 100 µM (inactive) | > 100 µM (inactive) | – | > 100 µM (inactive) | > 100 µM (inactive)
Cc1ncc(CCl)c2c1OC(C)(C)OC2 | > 100 µM (inactive) | > 100 µM (inactive) | – | 78.2 µM (inactive) | 74 µM (inactive) | 21.1 µM (inactive) | – | 50.9 µM (inactive) | 30 µM (inactive)
COC(=O)C1=C(C)N(NC(=O)OC(C)(C)C)C(=O)C1=P(c1ccccc1)(c1ccccc1)c1ccccc1 | > 100 µM (inactive) | > 100 µM (inactive) | 35.2 µM (inactive) | > 100 µM (inactive) | > 100 µM (inactive) | > 100 µM (inactive) | – | > 100 µM (inactive) | –
CCN(CC)CCOC(c1ccccc1)c1ccccc1.CCOC(=O)Nc1ccc(S(=O)(=O)OC)cc1.CCOC(=O)Nc1ccc(S(=O)(=O)OC)cc1.Nc1ccc(C(=O)O)c(O)c1 | > 100 µM (inactive) | > 100 µM (inactive) | – | – | > 100 µM (inactive) | > 100 µM (inactive) | – | > 100 µM (inactive) | > 100 µM (inactive)
N=C(N)NCCCC(NCc1c2ccccc2[n+]([O-])c2ccccc12)C(=O)O (stereo unspecified) | 32.7 µM (inactive) | 42.9 µM (inactive) | 40.4 µM (inactive) | – | – | > 100 µM (inactive) | – | 38.8 µM (inactive) | 59.8 µM (inactive)
CCOc1ccc(OCC(=O)O)c2c1CCCC2=O | > 100 µM (inactive) | – | > 100 µM (inactive) | > 100 µM (inactive) | > 100 µM (inactive) | – | – | > 100 µM (inactive) | > 100 µM (inactive)
